Assay results from article PMC3946503, “Impact of the Smoothened Inhibitor, IPI-926, on Smoothened Ciliary Localization and Hedgehog Pathway Activity” (PLoS ONE, 2014).
pEC50: −log10 of the molar value.

Target: T1, Smoothened (Smo) (Homo sapiens, UniProt Q99835)
T1 construct: wild-type human Smo overexpressed in C3H10T1/2 cells
Assay: BODIPY-cyclopamine competition binding on Smo-expressing cells, flow cytometry
Assay type: cell-based

T1 sequence (Q99835 28-787): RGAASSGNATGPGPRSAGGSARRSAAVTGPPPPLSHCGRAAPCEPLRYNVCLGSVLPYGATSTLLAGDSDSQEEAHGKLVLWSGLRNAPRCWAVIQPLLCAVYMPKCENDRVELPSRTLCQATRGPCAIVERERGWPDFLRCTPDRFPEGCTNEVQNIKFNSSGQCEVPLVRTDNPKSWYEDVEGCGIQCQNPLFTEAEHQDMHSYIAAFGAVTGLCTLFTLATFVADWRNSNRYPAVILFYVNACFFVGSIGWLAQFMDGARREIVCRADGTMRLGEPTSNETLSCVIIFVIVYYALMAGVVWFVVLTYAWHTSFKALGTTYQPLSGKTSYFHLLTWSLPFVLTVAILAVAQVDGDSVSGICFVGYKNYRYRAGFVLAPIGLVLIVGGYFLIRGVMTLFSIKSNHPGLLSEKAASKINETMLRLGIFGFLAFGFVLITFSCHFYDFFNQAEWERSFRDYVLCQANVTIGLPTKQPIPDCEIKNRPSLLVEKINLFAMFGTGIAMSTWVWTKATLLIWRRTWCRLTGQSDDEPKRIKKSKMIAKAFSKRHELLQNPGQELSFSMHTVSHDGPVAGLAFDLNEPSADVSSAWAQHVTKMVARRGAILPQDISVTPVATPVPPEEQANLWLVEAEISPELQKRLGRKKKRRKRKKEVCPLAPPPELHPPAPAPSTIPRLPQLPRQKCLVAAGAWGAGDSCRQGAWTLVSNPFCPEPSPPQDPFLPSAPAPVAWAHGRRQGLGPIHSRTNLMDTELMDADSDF

SMILES: CC1=C2C[C@H]3[C@@H](CC[C@@H]4C[C@H](NS(C)(=O)=O)CC[C@@]43C)[C@@H]2CC[C@@]2(C1)O[C@@H]1C[C@H](C)CN[C@H]1[C@H]2C [IPI-926]
- pEC50: 9.00
